Reference: patent publication USRE28819E, “Dialkylated glycol compositions and medicament preparations containing same” (Syntex (U.S.A.) Inc., priority 1975, dated 1976)
In brackets after ≈: the same amount, converted by molar mass. Where a name gives a salt, the structure may show the parent alone.

How the values were obtained:
physchem = settings: polyethylene glycol-550-dimethyl ether, organic solvent or mixture
[1] = solubility of medicament in polyethylene glycol-550-dimethyl ether at 30°C
[2] = storage stability of PGE2 formulations (percent activity, t90); assay type: physicochemical; settings: PGE2, conclusion from Examples XV-XXIX
Procedure: A formulation is prepared having 1 mg. PGE2 per ml. 1,2-dimethoxyethane. After 12 days storage at 60°C. under a nitrogen atmosphere, the PGE2 assays 100% of the activity at time zero.
A formulation is prepared having 1 mg. PGE2 per ml. of triethylene glycol-dimethyl ether. After 5 days storage at 60°C. under a nitrogen atmosphere, the PGE2 assays 100% of the activity at time zero.
The following formulations are prepared having 1 mg. PGE2 per ml. of polyethylene glycol-550-dimethyl ether, and the additional material(s) as set forth below. The percent activity of the PGE2 after storage for 7 days at 80°C. is also given.
A formulation is prepared having 1 mg. PGE2, 0.01% edetic acid, 0.01% BHA and 0.01% BHT per ml. polyethylene glycol-550-dimethyl ether, and sealed in an ampule under nitrogen atmosphere. After 18 days storage at 80°C., the PGE2 assays 100% of the activity at time zero.
The following formulations are prepared having 1 mg. PGE2 per ml. polyethylene glycol-550 -dimethyl ether, and the additional material(s) as set forth below, and the sealed in individual ampules under nitrogen atmosphere. The time (t90) for 10% of the PGE2 to decompose when stored at 80°C. is given. Also given is the corresponding t90 for a formulation having 1 mg. PGE2 per ml. polyethylene glycol-400, also sealed under nitrogen atmosphere.
By comparison, 1 mg. […]

[3] = literature (Brummer; Karim et al); cited from earlier work
[4] = decomposition of aspirin vs. time in formulation stored at 80°C; assay type: physicochemical; settings: conclusion from Examples XV-XXIX
Procedure: A formulation is prepared having 0.5 g. aspirin per 1.0g. polyethylene glycol- 750-dimethyl ether, and stored at 80°C. Decomposition of the aspirin is measured vs. time. The time for 10% decomposition is 27 hours. This reflects approximately a 30 month shelf-life at 25°C. This can be compared to a published report [Jun et al, J. Pharm. Sec.

[5] = polyethylene glycol-550-dimethyl ether, organic solvent or mixture

Compound	solubility [1, 5] [µg/mL]	solubility (physchem) [µg/mL]	also measured
CC(=O)[C@@]12OC(C)(C)O[C@@H]1C[C@H]1[C@@H]3C[C@H](F)C4=CC(=O)C=C[C@]4(C)[C@@]3(F)[C@@H](O)C[C@@]12C [6α,9α-difluoro-11β-hydroxy-16α,17α-isopropylidenedioxy-pregna-1,4-diene-3,20-dione]		6500 (≈ 14.9 mM)	
CC1(C)O[C@@H]2C[C@H]3[C@@H]4C[C@H](F)C5=CC(=O)C=C[C@]5(C)[C@@]4(Cl)[C@@H](Cl)C[C@]3(C)[C@]2(C(=O)CCl)O1 [9α,11β,21-trichloro-6α-fluoro-16α,17α-isopropylidenedioxy-pregna-1,4-diene-3,20-dione]		1500 (≈ 2.97 mM)	
CCCCC[C@H](O)/C=C/[C@@H]1[C@@H](C/C=C\CCCC(=O)O)[C@@H](O)C[C@H]1O [PGF2α, 9α,11α,15α-trihydroxy-5,13-prostadienoic acid]		36000 (≈ 102 mM)	
CC(=O)Oc1ccccc1C(=O)O [aspirin, acetylsalicylic acid]	120000 (≈ 666 mM)		chemical potency in the dialkylated glycol vehicle [4]: stabilizes, for extended periods of time, the chemical potency
CCOC(=O)c1ccc(N)cc1 [benzocaine]	111000 (≈ 672 mM)		
CN(C)C1C(=O)C(C(N)=O)=C(O)C2(O)C(=O)C3=C(O)c4c(O)cccc4C(C)(O)C3C(O)C12 (stereo not drawn) [oxytetracycline hydrochloride]		340	
gramicidin			solubility ([1]; in polyethylene glycol-550-dimethyl ether, 30°C): 4400 µg/mL

The next lines start with results.

solubility [1, 5] [µg/mL]	Compound	solubility (physchem) [µg/mL]	also measured
2700 (≈ 7.86 mM)	CCCCCCCCCCCCCCCC(=O)N(CCO)CCO [N,N-bis(2-hydroxyethyl)-palmitamide]		
2000 (≈ 5.67 mM)	CCCCC[C@H](O)/C=C/[C@H]1[C@H](O)CC(=O)[C@@H]1C/C=C\CCCC(=O)O [PGE2, 11α,15α-dihydroxy-9-keto-5,13-prostadienoic acid]		chemical potency in the dialkylated glycol vehicle [2]: stabilizes, for extended periods of time, the chemical potency; chemical stability [3]: relatively unstable
